Measurements taken from ChEMBL document CHEMBL1201862, “PubChem BioAssay data set” (2004).
Active and inactive are the calls of the source.

Assays:
[1] = molecular target: T1, Replicative DNA helicase DnaB (Mycobacterium tuberculosis, UniProt P9WMR3); assay: DnaB intein splicing inhibitors, dose response, biochemical, cell-free fluorescence (AID 449749); type: functional
T1 sequence (P9WMR3 whole entry): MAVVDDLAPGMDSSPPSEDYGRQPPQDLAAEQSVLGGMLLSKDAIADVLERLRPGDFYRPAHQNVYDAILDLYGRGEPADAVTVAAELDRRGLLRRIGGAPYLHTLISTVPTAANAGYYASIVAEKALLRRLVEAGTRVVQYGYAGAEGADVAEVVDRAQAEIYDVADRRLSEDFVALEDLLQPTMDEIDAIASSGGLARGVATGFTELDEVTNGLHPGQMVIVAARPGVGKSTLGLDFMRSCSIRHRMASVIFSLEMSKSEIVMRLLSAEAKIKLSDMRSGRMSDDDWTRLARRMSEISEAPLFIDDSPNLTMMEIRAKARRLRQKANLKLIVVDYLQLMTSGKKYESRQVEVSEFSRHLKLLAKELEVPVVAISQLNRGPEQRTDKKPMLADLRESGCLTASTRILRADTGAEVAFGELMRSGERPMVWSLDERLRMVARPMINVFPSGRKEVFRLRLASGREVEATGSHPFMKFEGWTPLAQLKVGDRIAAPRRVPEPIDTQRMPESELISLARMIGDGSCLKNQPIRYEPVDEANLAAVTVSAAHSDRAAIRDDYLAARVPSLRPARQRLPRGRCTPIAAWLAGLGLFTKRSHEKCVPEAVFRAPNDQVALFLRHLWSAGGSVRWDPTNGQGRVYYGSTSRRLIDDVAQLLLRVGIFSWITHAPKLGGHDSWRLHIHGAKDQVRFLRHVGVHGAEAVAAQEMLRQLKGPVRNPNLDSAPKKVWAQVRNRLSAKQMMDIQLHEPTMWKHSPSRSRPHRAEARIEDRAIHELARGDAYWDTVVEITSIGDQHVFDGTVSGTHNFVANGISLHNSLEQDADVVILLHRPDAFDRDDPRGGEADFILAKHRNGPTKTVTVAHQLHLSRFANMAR

Protein RecA = molecular target: T2, Protein RecA (Mycobacterium tuberculosis, UniProt P9WHJ3); assay: Fluorescence Cell-Free Homogeneous Dose Retest to Identify Inhibitors of RecA-Intein Splicing Activity. [Related pubchem assays (depositor defined):AID2097, AID2223, AID489010, AID492950]; type: functional
T2 sequence (P9WHJ3 whole entry): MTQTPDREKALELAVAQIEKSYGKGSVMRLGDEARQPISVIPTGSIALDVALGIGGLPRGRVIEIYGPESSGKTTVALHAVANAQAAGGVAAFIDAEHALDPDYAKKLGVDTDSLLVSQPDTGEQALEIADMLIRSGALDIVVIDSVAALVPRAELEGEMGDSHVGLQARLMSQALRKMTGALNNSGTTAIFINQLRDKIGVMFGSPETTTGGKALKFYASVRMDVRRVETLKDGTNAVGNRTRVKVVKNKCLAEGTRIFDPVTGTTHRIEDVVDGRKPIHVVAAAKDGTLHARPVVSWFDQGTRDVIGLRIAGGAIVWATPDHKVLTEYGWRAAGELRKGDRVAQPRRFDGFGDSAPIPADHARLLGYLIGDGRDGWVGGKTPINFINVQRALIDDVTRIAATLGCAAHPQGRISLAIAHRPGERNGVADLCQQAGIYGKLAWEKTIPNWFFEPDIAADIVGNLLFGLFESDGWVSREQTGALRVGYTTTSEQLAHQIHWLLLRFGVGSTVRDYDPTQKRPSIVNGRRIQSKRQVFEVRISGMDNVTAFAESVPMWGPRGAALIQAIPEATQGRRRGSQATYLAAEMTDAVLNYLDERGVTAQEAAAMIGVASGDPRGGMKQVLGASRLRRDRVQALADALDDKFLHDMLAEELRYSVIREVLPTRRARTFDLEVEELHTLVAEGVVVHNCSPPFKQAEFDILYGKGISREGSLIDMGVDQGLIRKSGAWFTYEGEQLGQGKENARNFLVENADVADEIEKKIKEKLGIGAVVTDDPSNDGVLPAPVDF

[2] = test system: Streptococcus sp. 'group A'; assay: growth inhibition of control SK(-) GAS strain, dose response, counter-screen for streptokinase expression inhibitor project, luminescence, kanamycin, BacTiterGlo, confirmation (AID 1900); type: functional, organism-based
Streptococcus = assay: Group A Streptococcus viability loss, dose response, counter-screen for streptokinase expression inhibitor project, luminescence, BacTiterGlo (AID 1915); type: functional, organism-based;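 further: potency for reduction of bacterial viability or growth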
[3] = cytotoxicity toward NIH3T3 fibroblasts, dose response, counter-screen, cell-based, ATP luminescence, mouse fibroblasts (AID 2010); type: functional;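 further: cells exposed to compound for about 90 hours before reading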
INS1 = assay: beta cell apoptosis inhibitors, cytokine rescue, dose response, luminescence, retest (AID 449756); type: functional, cell-based; details: Rattus norvegicus;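 further: cell death triggered by IL-1 beta plus TNF-alpha plus IFN-gamma mixture; protective hits raise ATP signal compared with cytokine alone wells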
[4] = Luminescence Cell-Based Dose Response HTS to Identify Inhibitors of 5'UTR Stem-Loop Driven Prion Protein mRNA Translation in H4 Neuroglioblastoma Cells. [Related pubchem assays: 1827 (Project Summary), 1813 (Primary HTS)]; type: functional
[5] = inhibitors of intracellular T. cruzi replication, confirmation, NIH3T3 host cells, beta-gal luminescence (AID 2044); type: functional, cell-based;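 further: intracellular parasites grown in NIH/3T3 mouse fibroblasts as host cells; luminescent beta-galactosidase reporter signal from transgenic T. cruzi replicating inside host cells; inhibitors lower the luminescence signal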
[6] = inhibitors of firefly luciferase expression or activity, dose response, H4 neuroglioma cells, luminescence (AID 1990); type: functional, cell-based
[7] = inhibitors of SNCA 5'UTR-driven reporter translation, confirmation, H4 neuroglioma cells, luminescence (AID 1988); type: functional, cell-based
Cytochrome P450 2C19 = Cytochrome P450 2C19 (Homo sapiens, UniProt P33261); assay: Cytochrome panel assay with activity outcomes. Panel member name: p450-cyp2c19 Compounds with AC50 equal or less than 10 uM are considered active; type: functional
H4 = assay: Luminescence Cell-Based Dose Response HTS to Identify Activators of 5'UTR Stem-Loop Driven Prion Protein mRNA Translation in H4 Neuroglioblastoma Cells. [Related pubchem assays: 1829 (Project Summary), 1814 (Primary HTS)]; type: functional; details: Homo sapiens
[8] = Luminescence Cell-Based Dose Response HTS to Identify Activators of Luciferase Translation or Activity in H4 […] Cells. [Related pubchem assays: 1829 (Project Summary), 1814 (Primary HTS)]; type: functional
[9] = Shn3 3'UTR reporter inhibitors, dose response, cell-based, Clone20 osteoblasts, firefly luciferase, cherry-picked (AID 624132); type: functional;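 further: firefly luciferase luminescence from reporter carrying the Shn3 3'UTR in osteoblasts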
[10] = control 3'UTR Renilla luciferase suppression, dose response, counter-screen for Shn3 inhibitor project, cell-based, Clone20-Shn3RL, cherry-picked (AID 624133); type: functional
[11] = Luminescence Cell-Based Dose Retest to Confirm Inhibitors of Cancer Stem Cells. [Related pubchem assays (depositor defined):AID2717, AID2721]; type: functional; details: Homo sapiens
Cytochrome P450 3A4 = Cytochrome P450 3A4 (Homo sapiens, UniProt P08684);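 further: CYP3A4 tested as one member of a cytochrome P450 panel screen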
[12] = molecular target: T3, Heat shock factor protein 1 (Mus musculus, UniProt P38532); assay: inhibition of MG132-induced HSE-luciferase signal, confirmation, cell-based, NIH3T3, luminescence, dose retest (AID 2382); type: functional;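 further: NIH3T3 fibroblasts with HSF1-driven luciferase reporter stressed by proteasome inhibitor MG132; luminescence from HSF1-driven luciferase expression after 8 hours of MG132 stress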
T3 sequence (P38532 whole entry): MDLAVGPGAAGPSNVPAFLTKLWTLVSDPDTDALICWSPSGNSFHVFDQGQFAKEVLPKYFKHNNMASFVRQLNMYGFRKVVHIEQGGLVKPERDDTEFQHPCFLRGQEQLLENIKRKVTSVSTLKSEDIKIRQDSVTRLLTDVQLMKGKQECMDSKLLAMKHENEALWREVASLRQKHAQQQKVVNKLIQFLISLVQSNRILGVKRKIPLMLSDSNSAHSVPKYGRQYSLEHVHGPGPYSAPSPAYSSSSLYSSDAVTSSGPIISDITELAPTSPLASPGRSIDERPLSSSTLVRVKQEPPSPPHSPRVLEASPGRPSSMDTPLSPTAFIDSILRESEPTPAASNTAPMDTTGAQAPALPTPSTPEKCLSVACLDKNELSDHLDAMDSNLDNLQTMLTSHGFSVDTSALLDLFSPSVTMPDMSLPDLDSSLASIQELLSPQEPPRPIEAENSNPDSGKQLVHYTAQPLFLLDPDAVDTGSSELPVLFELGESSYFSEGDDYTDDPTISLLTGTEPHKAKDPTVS

Cytochrome P450 2C9 = Cytochrome P450 2C9 (Homo sapiens, UniProt P11712)
Sequence of Cytochrome P450 2C9 (P11712 whole entry): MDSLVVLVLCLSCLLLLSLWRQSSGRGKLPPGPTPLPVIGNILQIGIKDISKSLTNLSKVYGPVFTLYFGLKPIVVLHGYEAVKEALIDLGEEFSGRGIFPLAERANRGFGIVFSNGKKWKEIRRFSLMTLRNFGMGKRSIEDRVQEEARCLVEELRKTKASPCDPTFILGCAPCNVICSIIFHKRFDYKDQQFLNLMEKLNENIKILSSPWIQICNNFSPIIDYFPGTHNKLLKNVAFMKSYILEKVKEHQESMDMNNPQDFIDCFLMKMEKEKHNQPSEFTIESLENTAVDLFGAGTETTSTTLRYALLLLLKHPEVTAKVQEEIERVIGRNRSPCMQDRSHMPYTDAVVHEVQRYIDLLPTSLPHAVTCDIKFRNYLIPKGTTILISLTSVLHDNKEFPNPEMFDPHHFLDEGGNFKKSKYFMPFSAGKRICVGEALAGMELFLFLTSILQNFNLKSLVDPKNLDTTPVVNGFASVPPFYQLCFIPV

Sequence of Cytochrome P450 2C19 (P33261 whole entry): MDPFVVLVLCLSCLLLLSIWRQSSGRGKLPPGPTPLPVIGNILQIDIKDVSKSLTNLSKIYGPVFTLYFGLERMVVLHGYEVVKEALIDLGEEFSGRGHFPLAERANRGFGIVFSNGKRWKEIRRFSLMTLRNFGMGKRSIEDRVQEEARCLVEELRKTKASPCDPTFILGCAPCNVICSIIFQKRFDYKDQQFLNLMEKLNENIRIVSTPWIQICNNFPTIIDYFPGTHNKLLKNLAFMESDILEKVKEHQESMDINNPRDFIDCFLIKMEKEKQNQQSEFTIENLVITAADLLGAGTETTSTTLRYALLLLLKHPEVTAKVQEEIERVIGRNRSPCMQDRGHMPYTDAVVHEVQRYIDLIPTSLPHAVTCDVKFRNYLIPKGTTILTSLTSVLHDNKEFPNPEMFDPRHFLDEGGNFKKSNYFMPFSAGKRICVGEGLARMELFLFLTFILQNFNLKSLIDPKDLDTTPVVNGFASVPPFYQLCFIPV
Sequence of Cytochrome P450 3A4 (P08684 whole entry): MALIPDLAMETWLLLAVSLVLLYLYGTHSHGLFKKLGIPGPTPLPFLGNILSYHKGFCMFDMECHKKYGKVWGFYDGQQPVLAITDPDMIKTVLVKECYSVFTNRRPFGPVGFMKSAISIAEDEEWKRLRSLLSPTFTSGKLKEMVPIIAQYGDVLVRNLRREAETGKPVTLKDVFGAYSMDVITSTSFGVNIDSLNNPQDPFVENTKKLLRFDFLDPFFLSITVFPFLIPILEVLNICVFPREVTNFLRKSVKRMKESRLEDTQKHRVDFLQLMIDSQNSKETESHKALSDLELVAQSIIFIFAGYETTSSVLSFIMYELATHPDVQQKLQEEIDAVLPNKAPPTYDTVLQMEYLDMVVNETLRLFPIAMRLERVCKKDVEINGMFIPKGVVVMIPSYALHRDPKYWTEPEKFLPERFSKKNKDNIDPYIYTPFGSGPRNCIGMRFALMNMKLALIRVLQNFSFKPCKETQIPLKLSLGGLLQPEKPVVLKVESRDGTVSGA

O=C(Oc1ccc(C(=S)N2CCOCC2)cc1)c1ccc([N+](=O)[O-])cc1[N+](=O)[O-]
AC50 [1]: 18.6 µM (active)
EC50 (Protein RecA): 10.6 µM (active)

C/C(=N\NC(=O)COc1ccccc1-c1ccccc1)c1ccc(O)cc1O
EC50 [2]: 3.01 µM (active)
EC50 (Streptococcus): 5.4 µM (active)
EC50 [3]: 4.94 µM (active)
AC50 (INS1): 2.48 µM (active)
EC50 [4]: 9.87 µM (active)
EC50 [5]: 1.24 µM (active)
EC50 [6]: 11.1 µM (active)
EC50 [7]: 9.9 µM (active)

CC(C)(C)c1[nH]nc2c1C(Cc1ccccc1)C(C#N)=C(N)O2 (configuration not stated)
AC50 [1]: 13.8 µM (active)
EC50 (Protein RecA): 2.31 µM (active)

C[N+](C)(C)c1nc(N)nc2c1ncn2[C@H]1O[C@@H](CO)[C@@H](O)[C@H]1O
AC50 (Cytochrome P450 2C19): inconclusive

N#CC(C#N)=NNc1ccc(S(=O)(=O)N2CCCCC2)cc1
AC50 [1]: 4.03 µM (active)
EC50 (Protein RecA): 9.78 µM (active)

O=C(CSc1nnc(-c2ccc(Cl)cc2)o1)N1CCOCC1
EC50 (H4): 11.8 µM (active)
EC50 [8]: 46.3 µM (active)

CCC(=O)c1cn(CC(=O)Nc2cccc(C)c2C)c2ccccc12
AC50 [9]: 1.52 µM (active)
AC50 [10]: 3.44 µM (active)

O=[N+]([O-])c1ccc(Sc2nc(O)c3ccccc3n2)c([N+](=O)[O-])c1
EC50 [3]: > 60 µM (not active)
AC50 [1]: 16.9 µM (active)
EC50 (Protein RecA): 6.05 µM (active)
EC50 [5]: 1.48 µM (active)

Cc1cc(NC(=O)COC(=O)c2ccc(NS(=O)(=O)c3ccc(C)c(C)c3)cc2)no1
AC50 (Cytochrome P450 2C19; read-out: AC50): 14.1 µM (inconclusive)

O=[N+]([O-])c1ccc(O)c(-c2nc(-c3ccccc3)c(-c3cccs3)[nH]2)c1
EC50 [2]: 1.23 µM (active)
EC50 (Streptococcus): 2.38 µM (active)
AC50 [11]: 662 nM (active)
EC50 [4]: > 120 µM (not active)
EC50 [6]: 18.2 µM (active)
EC50 [7]: > 120 µM (not active)

COc1cccc(Nc2ncc3ncc(=O)n(C)c3n2)c1
AC50 (Cytochrome P450 3A4): 12.6 µM (inconclusive)
AC50 (Cytochrome P450 2C19): inconclusive

CC(=O)Oc1ccc(OC(C)=O)c(SCCCCCCl)c1
AC50 [9]: 2.58 µM (active)
EC50 [12]: 7.65 µM (active)
AC50 [10]: 7.84 µM (active)

COc1cccc(-c2[nH]nc3c2C(c2ccc(C)o2)C(C#N)=C(N)O3)c1 (configuration not stated)
AC50 (Cytochrome P450 2C9): 15.8 µM (inconclusive)
AC50 [1]: 8.74 µM (active)
EC50 (Protein RecA): 1.53 µM (active)

CCOc1cc(C(c2c(C)n[nH]c2O)c2c(C)n[nH]c2O)cc(Cl)c1O
AC50 [1]: > 380 µM (inactive)
EC50 (Protein RecA): 4.74 µM (active)

O=P(O)(O)CCP(=O)(c1ccccc1)c1ccccc1
AC50 (Cytochrome P450 2C19): inconclusive

Cc1ccc(SCc2cc(=O)n(C)[nH]2)cc1
AC50 [1]: 13.3 µM (active)
EC50 (Protein RecA): 5.29 µM (active)

CN1CCc2[nH]nc(-c3n[nH]c4c3CN(C)CC4)c2C1
AC50 (Cytochrome P450 2C19): inconclusive

FC(F)(F)c1ccccc1-c1nc(NC2CCNCC2)c2ccccc2n1
AC50 (Cytochrome P450 2C19): inconclusive

CCCC1C(C#N)=C(N)Oc2[nH]nc(C(C)(C)C)c21 (configuration not stated)
AC50 [1]: 2.36 µM (active)
EC50 (Protein RecA): 0.504 µM (active)

CCCc1cc(=O)oc2c(CN3CCOCC3)c(O)ccc12
AC50 (Cytochrome P450 2C19; read-out: AC50): 25.1 µM (inconclusive)

COc1ccc2cc1Oc1ccc(cc1)CC1c3c(cc(OC)c4c3Oc3cc5c(cc3O4)CCNC5C2)CCN1C (configuration not stated)
EC50 [3]: 6.68 µM (active)
EC50 [4]: 8.28 µM (active)
EC50 [5]: 0.193 µM (active)
EC50 [6]: > 120 µM (not active)
EC50 [7]: 8.03 µM (active)

O=[N+]([O-])c1cc(-c2ccc(C(=S)N3CCOCC3)o2)ccc1Cl
AC50 [1]: 39.9 µM (active)
EC50 (Protein RecA): 10.2 µM (active)

Cc1cc(-c2c(C)[nH]n(-c3ccccc3)c2=O)n(-c2ccccc2)n1
AC50 (Cytochrome P450 2C19; read-out: AC50): 20 µM (inconclusive)

COc1ccc(CCN2CC34C=CC(O3)C(C(=O)NCc3ccccc3)C4C2=O)cc1OC (configuration not stated)
AC50 (Cytochrome P450 2C19; read-out: AC50): 14.1 µM (inconclusive)

COc1ccc(C2C(C#N)=C(N)Oc3[nH]nc(C)c32)cc1Cn1cc([N+](=O)[O-])cn1 (configuration not stated)
AC50 [1]: 5.32 µM (active)
EC50 (Protein RecA): 3.11 µM (active)

COc1ccc(-n2c(=O)c(C)nc3cnc(Nc4cccc(OC)c4)nc32)cc1
AC50 (Cytochrome P450 2C9): 39.8 µM (inconclusive)
AC50 (Cytochrome P450 3A4): 10 µM (inconclusive)
AC50 (Cytochrome P450 2C19; read-out: AC50): 39.8 µM (inconclusive)
